From patent US20030199671A1, “Binding molecules for Fc-region polypeptides” (priority 2001, published 2003)
Positions of bridges follow the written chain, without caps; N, C: chain ends. Residues, ends and D or L forms follow the SMILES beside them.

Legend:
Format in all cases: binding
[1] = test system: bovine IgG; details: Table 11; unfractionated IgG
How it was run: (§1)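 Unfractionated IgG in PBST (10 mM phosphate, 150 mM NaCl, 0.01% Tween 20, pH 7.2) or TBST (50 mM Tris, pH 7.5) was batch-incubated with immobilized peptide resin for 1-1.5 h at room temperature. Unbound IgG was quantitated by A280, and percent bound was taken by subtraction from control values.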

[2] = test system: goat IgG; details: Table 11; unfractionated IgG
How it was run: as §1

[3] = molecular target: T1, human IgG1 (Homo sapiens, UniProt P01857); details: for % IgG Capture - Batch Binding, Human IgG1: Table 9, immobilized peptide, 5.0 mg/ml resin load
T1 construct: all human subtypes derived from myeloma patients; purchased Calbiochem 400120; host or cells: myeloma patients
How it was run: (§2)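 Read-out is A280 of unbound IgG (1.4 mg/ml extinction coefficient), with percent bound derived against non-filtered or negative controls. Targets were incubated with immobilized peptides in PBST or TBST for 1-1.5 h at room temperature. Hydrolyzed Sepharose and immobilized Protein A serve as negative and positive controls.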

[4] = molecular target: T2, human IgG2 (Homo sapiens, UniProt P01859); details: for % IgG Capture - Batch Binding, Human IgG2: Table 9, immobilized peptide, 5.0 mg/ml resin load
T2 construct: all human subtypes derived from myeloma patients; purchased Calbiochem 400122; host or cells: myeloma patients
How it was run: as §2

[5] = test system: human IgG; details: Table 11; unfractionated IgG
How it was run: as §1

[6] = test system: mouse IgG; details: Table 11; unfractionated IgG
How it was run: as §1

[7] = molecular target: IgG3 (Homo sapiens, UniProt P01860); set-up: all human subtypes derived from myeloma patients; purchased Calbiochem 400124; host or cells: myeloma patients; details: for % IgG Capture - Batch Binding, Human IgG3: Table 9, immobilized peptide, 5.0 mg/ml resin load
How it was run: as §2

[8] = molecular target: IgG4 (Homo sapiens, UniProt P01861); set-up: all human subtypes derived from myeloma patients; purchased Calbiochem 400126; host or cells: myeloma patients; details: for % IgG Capture - Batch Binding, Human IgG4: Table 9, immobilized peptide, 5.0 mg/ml resin load
How it was run: as §2

[9] = Table 10, elution 0.1 M sodium bicarbonate buffer, pH 8.5
[10] = Table 10, elution 0.1 M sodium citrate buffer, pH 4.0

T1 sequence (P01857 1-330 isoform P01857-1): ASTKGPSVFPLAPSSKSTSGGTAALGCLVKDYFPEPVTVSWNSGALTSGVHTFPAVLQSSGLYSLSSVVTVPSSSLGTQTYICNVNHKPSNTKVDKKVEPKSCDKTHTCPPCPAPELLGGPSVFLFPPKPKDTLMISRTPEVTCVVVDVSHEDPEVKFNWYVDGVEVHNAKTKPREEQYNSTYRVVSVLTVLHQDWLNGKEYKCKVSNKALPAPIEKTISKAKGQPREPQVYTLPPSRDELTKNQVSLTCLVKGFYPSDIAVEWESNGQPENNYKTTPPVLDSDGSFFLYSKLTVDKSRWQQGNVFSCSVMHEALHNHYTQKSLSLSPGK
T2 sequence (P01859 1-326 isoform P01859-1): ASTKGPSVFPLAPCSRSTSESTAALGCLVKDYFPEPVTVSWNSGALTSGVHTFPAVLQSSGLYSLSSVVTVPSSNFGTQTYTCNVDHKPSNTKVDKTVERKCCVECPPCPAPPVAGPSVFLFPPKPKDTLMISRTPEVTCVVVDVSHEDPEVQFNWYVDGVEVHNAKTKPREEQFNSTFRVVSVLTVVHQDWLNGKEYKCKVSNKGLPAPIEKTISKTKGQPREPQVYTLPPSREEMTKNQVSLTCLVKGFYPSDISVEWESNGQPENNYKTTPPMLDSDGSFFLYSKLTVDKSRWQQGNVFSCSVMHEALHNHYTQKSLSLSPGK
Sequence of IgG4 (P01861 1-327 isoform P01861-1): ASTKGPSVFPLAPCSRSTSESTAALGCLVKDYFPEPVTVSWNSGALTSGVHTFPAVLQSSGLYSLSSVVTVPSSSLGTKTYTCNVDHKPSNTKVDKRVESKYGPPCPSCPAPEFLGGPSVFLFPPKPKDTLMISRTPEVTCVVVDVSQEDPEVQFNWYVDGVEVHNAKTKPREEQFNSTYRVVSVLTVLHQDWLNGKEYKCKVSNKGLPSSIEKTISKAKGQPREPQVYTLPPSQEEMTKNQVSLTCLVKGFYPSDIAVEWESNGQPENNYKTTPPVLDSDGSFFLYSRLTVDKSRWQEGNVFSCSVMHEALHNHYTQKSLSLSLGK
Sequence of IgG3 (P01860 1-377 isoform P01860-1): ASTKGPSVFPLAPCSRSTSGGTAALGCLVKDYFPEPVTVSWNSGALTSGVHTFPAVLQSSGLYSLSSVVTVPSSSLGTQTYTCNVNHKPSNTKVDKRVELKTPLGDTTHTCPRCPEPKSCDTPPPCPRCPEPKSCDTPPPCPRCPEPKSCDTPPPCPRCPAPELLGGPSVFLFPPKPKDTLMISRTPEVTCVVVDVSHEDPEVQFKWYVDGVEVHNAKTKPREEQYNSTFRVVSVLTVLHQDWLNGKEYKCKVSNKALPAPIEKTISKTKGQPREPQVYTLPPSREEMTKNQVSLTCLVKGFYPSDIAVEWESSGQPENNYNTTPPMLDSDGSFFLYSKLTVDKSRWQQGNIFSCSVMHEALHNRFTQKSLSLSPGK

| SMILES | % IgG Capture - Batch Binding, Bovine IgG [1] [%] | % IgG Capture - Batch Binding, Goat IgG [2] [%] | % IgG Capture - Batch Binding, Human IgG1 [3] [%] | Human IgG1 bdg % (% of Total Load) ([3]; Table 10, batch binding) [%] | Human IgG1 elu pH 8.5 (% of Total Load) [3, 9] [%] | Human IgG1 elu pH 4.0 (% of Total Load) [3, 10] [%] | % IgG Capture - Batch Binding, Human IgG2 [4] [%] | Human IgG2 bdg % (% of Total Load) ([4]; Table 10, batch binding) [%] | Human IgG2 elu pH 8.5 (% of Total Load) [4, 9] [%] | Human IgG2 elu pH 4.0 (% of Total Load) [4, 10] [%] | % IgG Capture - Batch Binding, Human IgG [5] [%] | % IgG Capture - Batch Binding, Mouse IgG [6] [%] | % IgG Capture - Batch Binding, Human IgG3 [7] [%] | Human IgG3 bdg % (% of Total Load) ([7]; Table 10, batch binding) [%] | Human IgG3 elu pH 8.5 (% of Total Load) [7, 9] [%] | Human IgG3 elu pH 4.0 (% of Total Load) [7, 10] [%] | % IgG Capture - Batch Binding, Human IgG4 [8] [%] | Human IgG4 bdg % (% of Total Load) ([8]; Table 10, batch binding) [%] | Human IgG4 elu pH 8.5 (% of Total Load) [8, 9] [%] |
| --- | --- | --- | --- | --- | --- | --- | --- | --- | --- | --- | --- | --- | --- | --- | --- | --- | --- | --- | --- |
| CC(=O)NCC(=O)N[C@@H](CC(=O)O)C(=O)N[C@@H](CC(=O)O)C(=O)N[C@@H](CC(=O)O)C(=O)N[C@@H](Cc1c[nH]cn1)C(=O)N[C@H]1CSSC[C@@H](C(=O)N2CCC[C@H]2C(=O)N[C@@H](Cc2c[nH]cn2)C(=O)NCC(=O)N[C@@H](CCC(=O)O)C(=O)N2CCC[C@H]2C(=O)NCC(=O)N2CCC[C@H]2C(=O)N[C@@H](CCC(=O)O)C(=O)NCC(=O)NCC(=O)NCC(=O)N[C@@H](CCCCN)C(N)=O)NC(=O)[C@H](CCC(=O)O)NC(=O)[C@H](CO)NC(=O)[C@H](CC(N)=O)NC(=O)[C@H](Cc2ccccc2)NC(=O)[C@H](Cc2c[nH]c3ccccc23)NC(=O)[C@H](CCC(=O)O)NC(=O)[C@H](CCCNC(=N)N)NC(=O)[C@H](Cc2ccccc2)NC(=O)[C@H](Cc2c[nH]c3ccccc23)NC(=O)[C@H](Cc2ccc(O)cc2)NC1=O [DX252] (Ac-GDDDHCYWFREWFNSECPHGEPGPEGGGK-NH2; disulfide 6-17 (inferred)) | 0 | 0 | 34 | 37 | 19 | 30 | 24 | 37 | 8 | 10 | 20 | 1 | 35 | 44 | 8 | 5 | 6 | 14 | 4 |
| CC(=O)N[C@@H](C)C(=O)NCC(=O)N[C@@H](CCCCN)C(=O)N[C@@H](Cc1ccc(O)cc1)C(=O)N[C@@H](Cc1c[nH]c2ccccc12)C(=O)N[C@H]1CSSC[C@@H](C(=O)N2CCC[C@H]2C(=O)N[C@@H](C)C(=O)N[C@@H](CC(N)=O)C(=O)N2CCC[C@H]2C(=O)NCC(=O)N2CCC[C@H]2C(=O)N[C@@H](CCC(=O)O)C(=O)NCC(=O)NCC(=O)NCC(=O)N[C@@H](CCCCN)C(N)=O)NC(=O)[C@H](C(C)C)NC(=O)CNC(=O)[C@H](Cc2c[nH]c3ccccc23)NC(=O)[C@H](CC(C)C)NC(=O)[C@H](CC(N)=O)NC1=O [DX395] | 0 | 0 | 21 |  |  |  | 2 |  |  |  | 19 | 0 | 85 |  |  |  | 4 |  |  |
| CC(=O)N[C@@H](C)C(=O)NCC(=O)N[C@@H](C)C(=O)N[C@@H](C)C(=O)N[C@H](C(=O)N[C@H]1CSSC[C@@H](C(=O)N[C@H](C(=O)N[C@@H](CC(=O)O)C(=O)N[C@@H](CO)C(=O)N2CCC[C@H]2C(=O)NCC(=O)N2CCC[C@H]2C(=O)N[C@@H](CCC(=O)O)C(=O)NCC(=O)NCC(=O)NCC(=O)N[C@@H](CCCCN)C(N)=O)[C@@H](C)O)NC(=O)[C@H](Cc2ccccc2)NC(=O)[C@H](Cc2c[nH]c3ccccc23)NC(=O)[C@H](CCC(N)=O)NC(=O)[C@H](Cc2ccc(O)cc2)NC(=O)[C@H](Cc2ccc(O)cc2)NC(=O)[C@H](Cc2c[nH]c3ccccc23)NC(=O)[C@H](Cc2ccc(O)cc2)NC(=O)[C@H](CO)NC(=O)[C@H]([C@@H](C)O)NC(=O)[C@H](CO)NC1=O)[C@@H](C)O [DX398] | 2 | 0 | 6 |  |  |  | 0 |  |  |  | 9 | 4 | 79 |  |  |  | 2 |  |  |
